Data as given in PMC6084407, “Structural Basis of Phosphatidic Acid Sensing by APH in Apicomplexan Parasites” (Structure(London, England:1993), 2018).

Legend:
[1] = target: T1, PfAPH106-235 (Plasmodium falciparum, UniProt Q8I1U2); test: 1D 1H NMR LUV titration; type: binding
T1 construct: gene PF3D7_0414600; C-terminal PH domain, residues 106-235; codon-optimised gene, pNIC28a-Bsa4, E. coli BL21(DE3); N-terminal His6 tag cut by TEV

[2] = target: T2, PfAPH106-235 (Plasmodium falciparum, UniProt Q8I1U2, K138A); test: biochemical
T2 construct: gene PF3D7_0414600
T2 sequence (Q8I1U2 106-235 K138A): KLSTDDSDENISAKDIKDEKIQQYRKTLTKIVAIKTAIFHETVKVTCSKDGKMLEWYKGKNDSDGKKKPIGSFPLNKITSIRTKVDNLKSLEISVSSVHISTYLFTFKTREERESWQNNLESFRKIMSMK

[3] = target: T3, PfAPH106-235 (Plasmodium falciparum, UniProt Q8I1U2, H145A); test: biochemical
T3 construct: gene PF3D7_0414600
T3 sequence (Q8I1U2 106-235 H145A): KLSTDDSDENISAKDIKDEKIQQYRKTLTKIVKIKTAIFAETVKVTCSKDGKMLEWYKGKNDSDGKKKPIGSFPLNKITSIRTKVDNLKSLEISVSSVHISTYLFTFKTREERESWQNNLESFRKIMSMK

[4] = target: T4, PfAPH106-235 (Plasmodium falciparum, UniProt Q8I1U2, F144A/I143A); test: biochemical
T4 construct: gene PF3D7_0414600
T4 sequence (Q8I1U2 106-235 F144A/I143A): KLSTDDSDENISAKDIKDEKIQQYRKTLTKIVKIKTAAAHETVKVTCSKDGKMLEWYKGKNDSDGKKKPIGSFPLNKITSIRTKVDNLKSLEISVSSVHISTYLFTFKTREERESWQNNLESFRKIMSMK

[5] = target: T5, PfAPH106-235 (Plasmodium falciparum, UniProt Q8I1U2, K140A); test: biochemical
T5 construct: gene PF3D7_0414600
T5 sequence (Q8I1U2 106-235 K140A): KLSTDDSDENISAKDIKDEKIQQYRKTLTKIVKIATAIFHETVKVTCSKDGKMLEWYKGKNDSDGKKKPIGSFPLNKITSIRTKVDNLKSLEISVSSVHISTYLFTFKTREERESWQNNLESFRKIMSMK

[6] = target: T6, PfAPH106-235 (Plasmodium falciparum, UniProt Q8I1U2, K138A/K140A); test: biochemical
T6 construct: gene PF3D7_0414600
T6 sequence (Q8I1U2 106-235 K138A/K140A): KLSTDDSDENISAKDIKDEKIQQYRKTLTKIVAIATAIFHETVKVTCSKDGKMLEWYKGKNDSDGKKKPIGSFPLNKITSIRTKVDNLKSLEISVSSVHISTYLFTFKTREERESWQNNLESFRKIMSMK

[7] = target: T7, TgAPH99-229 (Toxoplasma gondii, UniProt A0A125YY72); test: 1H-15N HSQC NMR titration; type: binding; details: free short-chain lipid; 250 μM protein; buffer pH 7
T7 construct: gene TGME49_249970; C-terminal PH domain, residues 99-229; codon-optimised gene, pNIC28a-Bsa4, E. coli BL21(DE3); N-terminal His6 tag cut by TEV
T7 sequence (A0A125YY72 entry or part of it): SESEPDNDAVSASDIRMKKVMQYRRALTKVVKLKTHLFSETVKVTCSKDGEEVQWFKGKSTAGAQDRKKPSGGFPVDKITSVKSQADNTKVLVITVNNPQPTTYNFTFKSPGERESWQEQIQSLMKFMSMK

[8] = target: T1, PfAPH106-235; test: 1H-15N HSQC NMR titration; type: binding
Source text: 1H-15N HSQC NMR titration on PfAPH106-235 | binding to the short-chain PA is in the fast exchange regime on the NMR timescale

T1 sequence (Q8I1U2 entry or part of it): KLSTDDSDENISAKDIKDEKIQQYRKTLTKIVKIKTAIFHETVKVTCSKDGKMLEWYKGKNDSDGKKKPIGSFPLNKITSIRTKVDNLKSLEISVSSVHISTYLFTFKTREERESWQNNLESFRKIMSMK

Compound `CCCCCCCC/C=C\CCCCCCCC(=O)O[C@H](COC(=O)CCCCCCCCCCCCCCC)COP(=O)(O)O` [POPA, 1-palmitoyl-2-oleoyl-sn-glycero-3-phosphate] has a Kd [1] of 275 ± 13 µM, a Kd [2] of 959 ± 35 µM and a Kd [3] of 499 ± 9 µM. The Kd [4] was 1320 µM, the Kd [5] was 604 ± 29 µM and the Kd [6] was 1490 µM.
Compound `CCCCCCCC/C=C\CCCCCCCC(=O)O[C@H](COC(=O)CCCCCCCCCCCCCCC)COP(=O)(O)OC[C@H](N)C(=O)O` [POPS, 1-palmitoyl-2-oleoyl-sn-glycero-3-phospho-L-serine] has a Kd [1] of 850 ± 13 µM.
`CCCCCC(=O)OC[C@H](COP(=O)(O)O)OC(=O)CCCCC` [short-chain PA, 1,2-dihexanoyl-sn-glycero-3-phosphate] was tested, and the “1H-15N HSQC NMR titration” value [7] was “Binding experiments with recombinant APHs and short-chain PA enabled mapping” and the Kd [8] was over 50 µM.
For `CCCCCCCC/C=C\CCCCCCCC(=O)O[C@H](COC(=O)CCCCCCCCCCCCCCC)COP(=O)([O-])OCC[N+](C)(C)C` [POPC, 1-palmitoyl-2-oleoyl-sn-glycero-3-phosphocholine], the Kd [1] was 1070 ± 33 µM.
